Molecules are shown by their SMILES. “And” between values parts separate entries of the source, which are not always exact repeats. Equal values may be shown once.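 These data come from cells grown in 96-well plates and exposed to compound for 48 hours at five concentrations. GI50 = concentration required for 50% inhibition of growth. TGI: total growth inhibition.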 Some results are limits rather than exact numbers.

What all share (test): NCI tumour cell line growth inhibition, 48 h
Experiment [1] relates to EKVX NSCLC.
The test system of experiment [2] is NCI-H460 lung.
The test system of experiment [3] is HS 578T breast.
Experiment [4] has as its system COLO 205 colon.
The test system of experiment [5] is HT29 colon.
Experiment [6] has as its system SF-295 CNS.
Experiment [7] concerns HOP-92 NSCLC.
Experiment [8] relates to SF-268 CNS.
For experiment [9], the system named is MALME-3M melanoma.
Experiment [10] has as its system CAKI-1 renal.
For experiment [11], the system named is MOLT-4 leukemia.

As to `O=c1[nH]cnc2c(C3OC(CO)C(O)C3O)c[nH]c12` (centres undefined), the TGI in experiment [1], in experiment [2], in experiment [3], in experiment [4], in experiment [5] and in [6] was > 100 µM in each case. Also, the TGI in experiment [7], in experiment [8], in experiment [9], in [10] and in experiment [11] was > 100 µM in each case.
Turning to `CC(C)(C)C(=O)C(CC(=O)c1ccccc1)C(=O)C(C)(C)C`, the TGI in experiment [1], in [2], in experiment [3], in experiment [4], in experiment [5] and in experiment [6] was > 100 µM throughout. The TGI in experiment [7], in experiment [8], in experiment [9], in experiment [10] and in [11] was > 100 µM in each case.
With `Cc1ccc(-c2cc(N)n(-c3nc4c([nH]3)c(=O)n(C)c(=O)n4C)n2)cc1`, the TGI is 21.6 µM in [1]; 18.4 µM in experiment [2]; > 100 µM in experiment [3]; 21.8 µM in [4]; > 100 µM in experiment [5]; 24.9 µM in experiment [6]. Besides, the TGI in experiment [7] was 32.2 µM; in [8], 34.5 µM; in [9], 16 µM; in [10] it was 13.4 µM; in [11] it was > 100 µM.
For the molecule `CC(=O)OCC1OC(N2C(=O)/C(=C\c3ccc(Cl)cc3)C(N)=Nc3ccccc32)C(OC(C)=O)C(OC(C)=O)C1OC(C)=O` (centres undefined), the TGI in experiment [1] was > 100 µM; in [2], > 100 µM; in [3] it was > 100 µM; in experiment [4], 29.8 µM; in experiment [5], 70.2 µM; in experiment [6], > 100 µM. Besides, the TGI in [7] was 45.2 µM; in experiment [8], 42 µM; in experiment [9] it was 68.4 µM; in experiment [10], > 100 µM; in experiment [11], 27 µM.
`Cc1ccc2c(c1C)CC1(Cc3c(ccc4c3CCC4)C1=O)C2=O` (centres undefined): the TGI in [1], in [2], in experiment [3], in experiment [4], in experiment [5] and in experiment [6] was > 100 µM throughout. The TGI in experiment [7], in experiment [8], in experiment [9], in experiment [10] and in experiment [11] was > 100 µM in each case.
For the molecule `N#CC1=C(N)OC2=C(CSc3ccccc32)C1c1ccc(Br)cc1` (centres undefined), the TGI in experiment [1] is 11.4 µM; in experiment [2] it was 26.8 µM; in experiment [3], > 100 µM; in [4], 10.8 µM; in experiment [5], 18.4 µM; in [6], 29 µM. Moreover, the TGI in [7] was determined as 21.5 µM; in experiment [8], 25.6 µM; in [9] it was 30.7 µM; in experiment [10] it was 26.4 µM; in [11] it was 8.44 µM.
Consider `O=c1c2ccccc2[nH]c(=S)n1-c1ccc(N=Nc2cccc3c(O)cccc23)cc1`, for which the TGI in experiment [1], in experiment [2], in experiment [3], in [4], in [5] and in experiment [6] was > 100 µM in each case. Also, the TGI in [7], in [8], in experiment [9], in experiment [10] and in experiment [11] was > 100 µM each time.
Regarding `CCOC(=O)c1cc2c([N+](=O)[O-])c(NC(C)=O)ccc2s1`, the TGI is 98 µM in experiment [1]; > 100 µM in experiment [2]; > 100 µM in [3]; > 100 µM in [4]; > 100 µM in experiment [5]; > 100 µM in experiment [6]. The TGI in experiment [7], in experiment [8], in experiment [9], in [10] and in experiment [11] was > 100 µM throughout.
Regarding `COc1ccc(Nc2c(C#N)c3n(c4ccccc24)c2ccccc2[n+]3C)cc1OC`, the TGI in experiment [1] was determined as 10.1 µM; in [2] it was 6.46 µM; in experiment [3] it was 11.3 µM; in [4] it was 12 µM; in experiment [5] it was 23 µM; in experiment [6], 11 µM. The TGI was > 34.2 µM in experiment [7]; 8.25 µM in experiment [8]; 15.8 µM in experiment [9]; 4.33 µM in [10]; > 29.5 µM in [11].
On to `Cc1cc(-c2nc3ccccc3s2)ccc1NS(=O)(=O)O`, for which the TGI in experiment [1] is > 100 µM; in experiment [2], > 100 µM; in experiment [3], > 59.5 µM; in experiment [4] it was > 11.9 µM; in experiment [5], > 100 µM; in experiment [6] it was > 100 µM. Besides, the TGI is > 100 µM in [7]; > 100 µM in experiment [8]; > 100 µM in experiment [9]; > 18.3 µM in experiment [10]; > 100 µM in experiment [11].
Turning to `c1cc2nnc1SCCSCCSc1ccc(nn1)SCCSCCS2`, the TGI in experiment [1], in [2], in experiment [3], in [4], in [5] and in experiment [6] was > 100 µM throughout. In addition, the TGI in [7], in experiment [8], in experiment [9], in experiment [10] and in experiment [11] was > 100 µM throughout.
For `CCCCCCCCCC[C@@H](O)[C@H]1CC[C@H]([C@H]2CC[C@H]([C@H](O)CCCCCCCCCC[C@@H]3CC(CC(C)=O)C(=O)O3)O2)O1` (some centres undefined), the GI50 in [1] was 1570 nM; in experiment [3] it was 8.36 µM; in [4], 6.71 µM; in experiment [6] it was 2220 nM; in experiment [7] it was 2410 nM; in experiment [8], 4.95 µM. Also, the TGI is > 50 µM in [1]; > 50 µM in [2]; > 50 µM in experiment [3]; > 29.5 µM in experiment [4]; > 50 µM in [5]; > 50 µM in [6]. Moreover, the TGI in experiment [7] was 8.42 µM and > 50 µM; in experiment [8], > 50 µM; in experiment [9], > 50 µM; in experiment [10], > 50 µM; in experiment [11] it was > 50 µM.
For `CC[C@@H]1CC[C@@H]2[C@H](CC[C@]3(C)[C@@H](O)CC[C@@H]23)[C@H]1C(=O)O`, the TGI in experiment [1], in [2], in experiment [3], in [4], in [5] and in experiment [6] was > 100 µM each time. The TGI in experiment [7], in [8], in experiment [9], in [10] and in [11] was > 100 µM in each case.

Source of the values: PubChem BioAssay (NCI).
